In this test the test system is CD8-expressing T cells. Description: ELISPOT of IFN-γ secretion in T cells activated by dendritic cells loaded with LMP2a epitope groups. Format: cell-based, human. Particulars: DC:CD8 T cells 1:10, 18 hours.
Setting [1] is: healthy human donor N5 (N5-1 and N5-2, repeated twice), FIGS. 1 and 2.
Where [2] appears, read: healthy human donor N15, FIG. 4.

Take “3 (MGAGPPSPGGDPDGD; LMP2a epitope) [compound 3]”: the “expression of IFN-γ in T cells (ELISPOT)” value is listed as “increased expression of IFN-γ” under setting [1]; “increased expression of IFN-γ” (healthy human donor N9, FIG. 3); “increased expression of IFN-γ” under setting [2].
As for “5 (GGDPDGDDGGNNSQY; LMP2a epitope) [compound 5]”, the “expression of IFN-γ in T cells (ELISPOT)” value under setting [2] is “increased expression of IFN-γ”.
Take “8 (SQYPSASGSYGNTPT; LMP2a epitope) [compound 8]”: the “expression of IFN-γ in T cells (ELISPOT)” value runs as follows: (healthy human donor N9, FIG. 3) “increased expression of IFN-γ”; under setting [2], “increased expression of IFN-γ”.
With “9 (SASGSYGNTPTPPND; LMP2a epitope) [compound 9]”, the “expression of IFN-γ in T cells (ELISPOT)” value is “increased expression of IFN-γ” under setting [1] and “increased expression of IFN-γ” under setting [2].
On to “12 (PNDEERESNEEPPPP; LMP2a epitope) [compound 12]”, for which the “expression of IFN-γ in T cells (ELISPOT)” value under setting [1] was “increased expression of IFN-γ”.
Regarding “15 (PPPYEDLDWGNGDRH; LMP2a epitope) [compound 15]”, the “expression of IFN-γ in T cells (ELISPOT)” value is, setting by setting: under setting [1], “increased expression of IFN-γ”; (healthy human donor N9, FIG. 3) “increased expression of IFN-γ”; under setting [2], “increased expression of IFN-γ”.
For the substance “16 (EDLDWGNGDRHSDYQ; LMP2a epitope) [compound 16]”, the “expression of IFN-γ in T cells (ELISPOT)” value (healthy human donor N9, FIG. 3) is recorded as “increased expression of IFN-γ”.
With “18 (DRHSDYQPLGNQDPS; LMP2a epitope) [compound 18]”, under setting [1], the “expression of IFN-γ in T cells (ELISPOT)” value is “increased expression of IFN-γ”.
With “19 (DYQPLGNQDPSLYLG; LMP2a epitope) [compound 19]”, the “expression of IFN-γ in T cells (ELISPOT)” value (healthy human donor N9, FIG. 3) was “increased expression of IFN-γ”.
Regarding “20 (LGNQDPSLYLGLQHD; LMP2a epitope) [compound 20]”, the “expression of IFN-γ in T cells (ELISPOT)” value (healthy human donor N9, FIG. 3) is recorded as “increased expression of IFN-γ”.

(Values after US20230210896A9, “METHOD FOR T CELL ACTIVATION FOR CANCER TREATMENT” (GOOD T CELLS, INC., priority 2019, published 2023).)
